From patent publication US20160202261A1 (priority 2011, published 2016)

Legend:
[1] = test system: VASP Ser157 and Ser239 phosphorylation in T84 and HCT116 colon cancer cells; assay type: cell-based, human
[2] = test system: T84 human colon carcinoma cells; assay type: cell-based

For `Nc1nc2c(nc(Br)n2[C@@H]2O[C@@H]3COP(=O)(O)O[C@H]3[C@H]2O)c(=O)[nH]1` [8-br-cGMP], which “VASP phosphorylation at Ser157 and Ser239” value [1] is on record?
The value was “mimicked”.

And the “Filopodia frequency and length” value [2]?
Its value is “impaired”.
